Key:
[1] = system: RBCs of healthy whole blood; assay: RBC deformability (Elongation Index, LORRCA ektacytometry), ex vivo TBHP oxidation of healthy whole blood; assay type: cell-based, human; conditions: for EI over vehicle control, both ½ EImax and EImax: healthy donor 2, single amino acid treatments
Text: Whole blood from healthy African American and/or Hispanic donors was obtained from Research Blood Components, LLC based on the following donor selection criteria: Adult age (between 18 and 50 years), normal BMI (<30), and absence of other confounding clinical conditions. Whole blood from SCD donors were obtained from BioIVT based on the following donor selection criteria: Patients with genotypes HbSS, HbSC, HbS/β^0 and at least 1-2 months gap since last blood transfusion. Whole blood was shipped on ice on the same day as blood draw. Upon receipt, the blood sample was aliquoted and stored in the refrigerator until used for studies.
RBC deformability measurements were conducted with the Laser Optical Rotational Red Cell Analyzer (LORRCA) from RR Mechatronics in a temperature-controlled environment (37° C.). Briefly, an even layer of RBCs suspended in polyvinylpyrrolidone (PVP) is subjected to shear stress gradient (0.3 to 30 Pa) through two concentric cylinders and the resulting changes in RBC shape or deformability are measured by a laser beam diffraction pattern. The captured images of RBC shape in response to increasing shear stress are then analyzed by the LORRCA program to calculate Elongation Index (EI).
Healthy RBCs have higher deformability ≥0.5 EI and SCD RBCs have lower deformability or EI values as studied by LORRCA ektacytometry in the field. […] The induced hemolysis model in this disclosure involves use of tert-butyl hydroperoxide (TBHP) to lower EI of RBCs.
The ex vivo hemolysis study disclosed here involves overnight treatment of whole blood with vehicle as a control and specific amino acids followed by rapid oxidation (5 min) with TBHP. Method for oxidation of whole blood with tert-butyl hydroperoxide has been used in prior literature (Diederich L, et al, Front Physiol. 2018 May 11; 9:332). RBC deformability or shape changes are then measured with LORRCA ektacytometry.
Whole blood aliquots stored in the fridge were brought up to room temperature while gently shaking on a rocker at low speed for an hour to ensure gradual and uniform suspension of red blood cells prior to deformability measurements. Vehicle control used in the study was 1× Dulbecco's […]) and amino acids disclosed herein were added (at either final 10× or 2.5 mM concentration as indicated) to corresponding vehicle and amino acid treatment conditions. The samples were then incubated overnight at 37° C. The next day, 25 μl of whole blood was taken from each treatment condition and added to 5 mL Elon ISO viscous solution from RR Mechatronics. The sample was inverted 15-20 times to ensure proper mixing of the treated RBCs with the Elon ISO solution followed by loading the sample on LORRCA and capturing RBC deformability or shape measurements over the applied shear gradient. The remaining whole blood treatments were returned to incubator (37° C.) until deformability measurements were completed for all treatments. To the remaining whole blood treatment samples, TBHP solution (5.0-6.0 M in Decane, Sigma) was added at 2.5 mM final concentration from a 100 mM freshly prepared stock and incubated for further 5 min at 37° C. 25 μl of this TBHP-treated sample was immediately removed at the end of the 5 min incubation and added to the Elon ISO solution for RBC deformability measurement after oxidation. Included in the Tables 13-15 are EI measurements at ½ EImax shear stress 1.69 Pa and EImax shear stress 30 Pa from these studies and FIG. 1 captures EI measurements for all shear stress points for the indicated treatment conditions.

ICAM-1 = ICAM-1 cell integrated intensity in HLMVEC treated with TNF-α (immunofluorescence); assay type: cell-based, human; conditions: for TNFα induced ICAM-1 expression levels in HLMVEC: 0.5 ng/mL TNF-α, amino acids at 20× HMDB, 24 hours
In short: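 Primary human lung microvascular endothelial cells, 24 h in medium with SCD-like amino acid profile plus 0.5 ng/mL TNF-α, with or without amino acids at 20× mean plasma level. Fixed, immunostained for ICAM-1 and VCAM-1; integrated intensity per cell by high-content imaging.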

Compound	effectiveness among all treatment groups, EI and fold change relative to vehicle ([1]; healthy donor 2)	EI over vehicle control, both ½ EImax and EImax [1]	TNFα induced ICAM-1 expression levels in HLMVEC (ICAM-1)	ICAM-1 Cell Integrated Intensity Median (ICAM-1; HLMVEC + 0.5 ng/mL TNF-α, 24 h, amino acids 20x HMDB, Nac/Cit/Car 5 mM as bracketed)
NC(=O)CC[C@H](N)C(=O)O [Glutamine, L-glutamine]	least effective	higher than the vehicle	increased	–
CC(=O)N[C@@H](CS)C(=O)O [N-Acetyl Cysteine, N-acetylcysteine]	–	higher than the vehicle	reduced levels of ICAM-1 expression to a lesser extent	−0.222
